According to patent US20250230193A1, “CYCLIC COMPOUND HAVING SELECTIVE KRAS INHIBITORY EFFECT ON HRAS AND NRAS” (CHUGAI SEIYAKU KABUSHIKI KAISHA, priority 2022, published 2025):
*1 amine or outer side, *2 acyl side, *3 side chain or, on linkers, in order; H or OH if unused. Where a SMILES comes first, the peptide text is derived from it. Bridges are numbered along the chain shown (N, C = ends). [ ]: non-standard residue; d: D form. The star is where a group is joined. hPhe(3-Cl-4-CF3) = N[C@@H](CCc1ccc(C(F)(F)F)c(Cl)c1)C(=O)O; NPrPhe(4-CF3) = CCCN[C@@H](Cc1ccc(C(F)(F)F)cc1)C(=O)O; X26 = COCCCN([C@@H](Cc1ccc(C)cc1)C(=O)[*:2])[*:1]; X38 = C[C@@H]1CN([*:1])[C@@H]1C(=O)[*:2]; NMeGly(cPent) = CN[C@H](C(=O)O)C1CCCC1; Hyp = O=C(O)[C@@H]1C[C@@H](O)CN1; NMeD = CN[C@@H](CC(=O)O)C(=O)O; NMeL = CN[C@@H](CC(C)C)C(=O)O; Morpholide = C1CN(*)CCO1; NMeA = CN[C@@H](C)C(=O)O; Ac5c = NC1(C(=O)O)CCCC1; Aze = O=C(O)[C@@H]1CCN1; Sar = CNCC(=O)O

Legend:
[1] = molecular target: GDP-bound NRAS wild-type protein (Homo sapiens, UniProt P01111); assay: Binding to NRAS by surface plasmon resonance (SPR), Single Cycle Kinetics; conditions: SPR; for NRAS/KRAS (ratio of KD value for NRAS to KD value for KRAS): GDP-bound NRAS wild-type vs GDP-bound KRAS wild-type
Sequence of GDP-bound NRAS wild-type protein (P01111 whole entry): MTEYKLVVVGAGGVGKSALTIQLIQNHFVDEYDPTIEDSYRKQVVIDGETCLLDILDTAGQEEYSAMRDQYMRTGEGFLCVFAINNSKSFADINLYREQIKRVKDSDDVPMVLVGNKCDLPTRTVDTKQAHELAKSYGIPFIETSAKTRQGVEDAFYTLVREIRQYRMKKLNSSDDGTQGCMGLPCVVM

[2] = molecular target: GDP-bound HRAS wild-type protein (Homo sapiens, UniProt P01112); assay: Binding to HRAS by surface plasmon resonance (SPR), Single Cycle Kinetics; conditions: SPR; for HRAS/KRAS (ratio of KD value for HRAS to KD value for KRAS): GDP-bound HRAS wild-type vs GDP-bound KRAS wild-type
Sequence of GDP-bound HRAS wild-type protein (P01112 whole entry): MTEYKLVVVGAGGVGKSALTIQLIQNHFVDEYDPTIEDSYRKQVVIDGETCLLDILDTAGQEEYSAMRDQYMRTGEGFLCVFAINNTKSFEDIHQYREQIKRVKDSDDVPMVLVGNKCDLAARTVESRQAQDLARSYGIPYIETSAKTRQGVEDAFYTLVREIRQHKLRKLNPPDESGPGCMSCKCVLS

Structure (SMILES): CCCN(C)C(=O)[C@@H]1CC(=O)N(C)[C@@H](CC2CC2)C(=O)N[C@@H]([C@@H](C)CC)C(=O)N(C)CC(=O)N(C)[C@H]2C/C=C\CCN(C2=O)[C@@H](Cc2ccc(C(F)(F)F)cc2)C(=O)N(C)CC(=O)N[C@@H](CCc2cc(F)c(C(F)(F)F)c(F)c2)C(=O)N2C[C@H](F)C[C@H]2C(=O)NC2(CC(C)(C)C2)C(=O)N(C)[C@@H](C2CCCC2)C(=O)N1C [PP1665]
- NRAS/KRAS (ratio of KD value for NRAS to KD value for KRAS) [1]: AA (a compound having 20 or more is denoted as AA)
- HRAS/KRAS (ratio of KD value for HRAS to KD value for KRAS) [2]: A (a compound having 10 or more and less than 20 is denoted as A)

Structure (SMILES): CCC[C@H]1C(=O)N[C@@H](C2CCCC2)C(=O)N(C)CC(=O)N(C)[C@H]2C/C=C\CCN(C2=O)[C@@H](Cc2ccc(C(F)(F)F)cc2)C(=O)N(C)CC(=O)N[C@@H](CCc2ccc(C(F)(F)F)c(Cl)c2)C(=O)N2C[C@H](OCC)C[C@H]2C(=O)NC2(CC(C)(C)C2)C(=O)N(C)[C@@H](CC(C)(C)C)C(=O)N(C)[C@H](C(=O)N(C)C)CC(=O)N1C [PP2971]
- NRAS/KRAS (ratio of KD value with respect to GDP-bound NRAS wild-type protein to KD value with respect to KRAS) ([1]; GDP-bound wild-type proteins): A (a compound having 10 or more and less than 20 is denoted as A)
- HRAS/KRAS (ratio of KD value with respect to GDP-bound HRAS wild-type protein to KD value with respect to KRAS) ([2]; GDP-bound wild-type proteins): A (a compound having 10 or more and less than 20 is denoted as A)

Structure (SMILES): CCCN1C(=O)CN(C)C(=O)[C@@H]2[C@H](C)CN2C(=O)[C@H]([C@@H](C)CC)NC(=O)[C@H](CC(C)C)N(C)C(=O)C[C@@H](C(=O)N2CCOCC2)N(C)C(=O)[C@H](C2CCCC2)N(C)C(=O)C2(CCCC2)NC(=O)[C@@H]2CCCN2C(=O)[C@H](CCc2ccc(C(F)(F)F)c(Cl)c2)NC(=O)CN(C)C(=O)[C@@H]1Cc1ccc(C(F)(F)F)cc1 [PP0257] ([NMeL]I[X38][Sar][NPrPhe(4-CF3)][Sar][hPhe(3-Cl-4-CF3)]P[Ac5c][NMeGly(cPent)][NMeD]-Morpholide; lactam N-11)
- NRAS/KRAS (ratio of KD for GDP-bound NRAS wild-type to KD for KRAS) [1]: B (a compound having 3 or more and less than 10 is denoted as B)
- HRAS/KRAS (ratio of KD for GDP-bound HRAS wild-type to KD for KRAS) [2]: B (a compound having 3 or more and less than 10 is denoted as B)

Structure (SMILES): CCCN1C(=O)CN(C)C(=O)CNC(=O)[C@H]([C@@H](C)CC)NC(=O)[C@H](CC(C)C)N(C)C(=O)C[C@@H](C(=O)N(C)C)N(C)C(=O)[C@H](C2CCCC2)N(C)C(=O)C2(CCCC2)NC(=O)[C@@H]2C[C@@H](OCC)CN2C(=O)[C@H](CCc2ccc(C(F)(F)F)c(Cl)c2)NC(=O)CN(C)C(=O)[C@@H]1Cc1ccc(C(F)(F)F)cc1 [PP0421] ([NMeL]IG[Sar][NPrPhe(4-CF3)][Sar][hPhe(3-Cl-4-CF3)][Hyp](Et)[Ac5c][NMeGly(cPent)][NMeD]-NMe2; lactam N-11)
- NRAS/KRAS (ratio of KD value with respect to GDP-bound NRAS wild-type protein to KD value with respect to KRAS) [1]: B (a compound having 3 or more and less than 10 is denoted as B)
- HRAS/KRAS (ratio of KD value with respect to GDP-bound HRAS wild-type protein to KD value with respect to KRAS) [2]: C (A compound having a KD ratio of 0.1 or more and less than 3 is denoted as C)

Structure (SMILES): CCO[C@@H]1C[C@H]2C(=O)N(C)C3(CCCC3)C(=O)N(C)[C@@H](C3CCCC3)C(=O)N(C)[C@H](C(=O)N(C)C)CC(=O)N(C)[C@@H](CC)C(=O)N[C@@H]([C@@H](C)CC)C(=O)N3CCC[C@H]3C(=O)N(C)[C@H]3C/C=C\CCN(C3=O)[C@@H](Cc3ccc(C)cc3)C(=O)N(C)CC(=O)N[C@@H](CCc3cc(F)c(C(F)(F)F)c(F)c3)C(=O)N2C1 [PP1810]
- NRAS/KRAS (ratio of KD value for NRAS to KD value for KRAS) [1]: A (a compound having 10 or more and less than 20 is denoted as A)
- HRAS/KRAS (ratio of KD value for HRAS to KD value for KRAS) [2]: B (a compound having 3 or more and less than 10 is denoted as B)

Structure (SMILES): CC[C@H](C)[C@@H]1NC(=O)[C@H](CC(C)C)N(C)C(=O)C[C@@H](C(=O)N(C)C)N(C)C(=O)[C@H](C2CCCC2)N(C)C(=O)C2(CCC2)NC(=O)[C@@H]2CCCN2C(=O)[C@H](CCc2cc(F)c(C(F)(F)F)c(F)c2)NC(=O)CN(C)C(=O)[C@H](Cc2ccc(C(F)(F)F)cc2)N2CCCC[C@@H](C2=O)N(C)C(=O)CN(C)C1=O [PP0574]
- NRAS/KRAS (ratio of KD value with respect to GDP-bound NRAS wild-type protein to KD value with respect to KRAS) [1]: C (A compound having a KD ratio of 0.1 or more and less than 3 is denoted as C)
- HRAS/KRAS (ratio of KD value with respect to GDP-bound HRAS wild-type protein to KD value with respect to KRAS) [2]: B (a compound having 3 or more and less than 10 is denoted as B)

Structure (SMILES): CC[C@H](C)[C@@H]1NC(=O)[C@H](CC(C)C)N(C)C(=O)C[C@@H](C(=O)N2CCOCC2)N(C)C(=O)[C@H](C2CCCC2)N(C)C(=O)C2(CCCC2)NC(=O)[C@@H]2CCCN2C(=O)[C@H](CCc2ccc(C(F)(F)F)c(Cl)c2)NC(=O)CN(C)C(=O)[C@H](Cc2ccc(C)cc2)N(CCCOC)C(=O)[C@@H]2CCN2C(=O)[C@H](C)N(C)C1=O [PP0093] ([NMeL]I[NMeA][Aze][X26][Sar][hPhe(3-Cl-4-CF3)]P[Ac5c][NMeGly(cPent)][NMeD]-Morpholide; lactam N-11)
- NRAS/KRAS (ratio of KD for GDP-bound NRAS wild-type to KD for KRAS) [1]: C (A compound having a KD ratio of 0.1 or more and less than 3 is denoted as C)
- HRAS/KRAS (ratio of KD for GDP-bound HRAS wild-type to KD for KRAS) [2]: B (a compound having 3 or more and less than 10 is denoted as B)
